This is an account of results in paper PMC6278556, “An Accurate and Effective Method for Measuring Osimertinib by UPLC-TOF-MS and Its Pharmacokinetic Study in Rats” (Molecules, 2018).

Read-outs that look alike come from different tables or passages of the source.

For data set [1] the following is noted: stated without source; cited from earlier work.
Data set [2] is described as follows: Stability of osimertinib in rat plasma under various storage conditions. Type of data set: in vitro ADME. How it is done:
The stabilities of this method, which include the freeze–thaw stability, autosampler stability, short-term stability and long-term stability, were evaluated through three QC samples after the sample preparation method. […] In addition, the long-term stability was evaluated through the determination of three QC samples that were kept at −80 °C for 30 days. All samples were considered stable with RSDs < ±15%.

A short description of data set [3]: Pharmacokinetic study in SD rats after oral administration. The conditions noted are these: n = 7, mean ± SD, non-compartmental. Type of data set: in vivo. How it is done: The pharmacokinetic study of osimertinib was applied to seven male SD rats using oral administration by gavage and the dosage was 4.5 mg/kg. Osimertinib was diluted and suspended by 0.5% sodium carboxymethylcellulose. No less than 0.3 mL rat plasma was sampled at 0, 1, 2, 3, 4, 5, 6, 7, 8, 10, 12, 24, 36, and 48 h after oral administration through the oculi chorioideae vein under the condition of light ether anesthesia. After 10 min centrifuging of all analytes at 5000× g, the supernatant was collected and frozen at −40 °C until analysis. The use of animals in the presented study was permitted by the Ethics Committee of the Hebei Medical University, and all animal studies were carried out according to the Guidance for the Care and Use of Laboratory Animals of the US National Institute of Health.
Ten microliters of IS solution (500 ng/mL) was prepared in 100 μL rat plasma and vortex-mixed for 20 s. After that step, 500 μL of acetonitrile was added to precipitate the protein. Then, the mixture was vortexed for 1 min and centrifuged at 12,000 rpm for 10 min. The supernatant was transferred into a new Eppendorf tube and evaporated to dryness through nitrogen gas at 45 °C. After 100 μL of acetonitrile was added to reconstitute the residue and vortexed for 1 min, all samples were centrifuged at 12,000× g for 10 min. Finally, 80 μL of the supernatant was collected and injected into UPLC sample vials before use.
Dynamic background subtraction is a novel technique performed using the Analyst software (AB Sciex, Foster City, CA, USA). In addition, the data of the pharmacokinetic study of osimertinib were collected and calculated by the DAS 2.1.1 software in the non-compartmental mode (Mathematical Pharmacology Professional Committee of China, Shanghai, China).

[4] abbreviates: Sprague-Dawley (SD), rat, plasma, male SD rats, oral 4.5 mg/kg.

What is called pKa is the negative logarithm of the acid dissociation constant. The AUC(0-inf) is the area under the concentration-time curve extrapolated to infinity. High values mean high exposure, low ones low exposure. The term AUC(0-t) denotes exposure summed from dosing to a finite time, without extrapolation to infinity. For orientation: Cmax means the peak of the concentration-time curve. A word on the MRT: it is a mean duration of stay, worked out from the concentration-time curve. Regarding `C=CC(=O)Nc1cc(Nc2nccc(-c3cn(C)c4ccccc34)n2)c(OC)cc1N(C)CCN(C)C` [Osimertinib, N-(2-{2dimethylaminoethyl-methylamino}-4-methoxy-5-{[4-(1-methylindol-3-yl)pyrimidin-2yl]amino}phenyl)prop-2-enamide], in data set [1], the pKa is listed as 13.64. Besides, the Stability in words entry in data set [2] (plasma samples, storage temperature (−80 °C) for at least 30 days) is given as “stable”; in data set [2] (rat plasma, autosampler temperature (4 °C) for 24 h), “good stability”; in data set [2] (rat plasma, room temperature (25 °C) for 24 h) it was “good stability”; in data set [2] (rat plasma, three freeze (−80 °C) and thaw (0 °C) cycles), “remained stable”. Also, in data set [3] (setting [4]), the AUC(0-inf) was 426 ± 81.7 ng·h/mL. The same compound yielded an AUC(0-t) in data set [3] (setting [4]) of 382 ± 69 ng·h/mL. In data set [3] (setting [4]), this compound gave a Cmax of 28.5 ± 3.97 ng/mL. In addition, the MRT in data set [3] (setting [4]) amounted to 14.5 ± 1.91 h. In data set [3] (Sprague-Dawley (SD), rat, plasma, male SD rats, oral 4.5 mg/kg, read-out: Vz/F (distribution volume)), the Vd/F was found to be 234 ± 66.7 L/kg. Besides, the half-life in data set [3] (Sprague-Dawley (SD), rat, plasma, male SD rats, oral 4.5 mg/kg, read-out: t1/2z (terminal half-life) (converted)) was 15 ± 3.44 h. Also, the “CLz/F (clearance)” value in data set [3] (male SD rats, oral 4.5 mg/kg) was determined as 180.7 ± 32.3 mL/min/kg. The tmax in data set [3] (male SD rats, oral 4.5 mg/kg, 4.5 mg/kg) was 4.80 ± 1.10 h; in data set [3] (male, Sprague-Dawley (SD), rat, plasma, po, 4.5 mg/kg, read-out: tmax), 4.5 h. The CL/F in data set [3] (male, Sprague-Dawley (SD), rat, plasma, po, 4.5 mg/kg, read-out: CLz/F (clearance) (converted)) was ~181 mL/min/kg.
